Converted amounts (≈) assume the structure as drawn. Read-outs that look alike come from different tables or passages of the source.
Tests used:
HIV-1IIIB virus = experiment: Anti-HIV activity: inhibition of HIV-1-induced cytopathic effect in MT-4 cells, MTT colorimetric assay; type: cell-based; conditions: for SI (selective index): ratio of CC50 to EC50, MT-4 cells; for Emax: read-out: EmaxAV (maximum antiviral effect %, inhibition of virus-induced CPE)
Procedure: The effects of the test compounds in preventing cytopathic effects that occur because of HIV-1 replication were evaluated by MTT colorimetric assay. MT-4 cells suspended at 1 X 10^8 cells/ml were infected with 640 μL of HIV-1IIIB virus at 1.26 X10^8 TCID50/ml. After infection, 200 μl HIV-infected MT-4 cells (1 X10^5 cells/well) in growth media were added to each well. The plates were preincubated for 24 h at 37 °C to allow stabilization. Then, 50 μL of the test compounds (at a concentration of 4 mg/ml) were added to the first column of the well. With a multichannel pipette, 50 μL was transferred (in triplicate) from the wells labeled 1 to wells labeled 2. Such transfers were continued (serial dilution), moving from left to right, changing tips prior to mixing contents of the next column of wells. Finally, 50 μL was discarded from the wells in column 12. Different concentrations ([…]) of test compounds were prepared through serial dilution. Each dilution was tested in triplicates. The microtiter plates were incubated at 37 °C in a 5% CO2 incubator for 5 days. […] After 5 days of incubation, cell viability was determined by the MTT assay described. All compounds were assayed in triplicate.

MT-4 cells = experiment: in vitro; conditions: 5 days, MTT, mean ± S.E.M (n = 3); for MNTC (maximum nontoxic concentration): concentration with cell viability above 80% (CC20)
Procedure: (§1) A cytotoxicity test was conducted to evaluate the safety of the plant extracts by measuring cell death caused by the plant extracts. The assay was conducted using an MTT colorimetric assay. The MTT assay was based on the reduction of the yellow-colored tetrazolium salt MTT 3-(4,5-dimethylthiazol-2-yl)-2,5-diphenyltetrazolium bromide) by NAD(P)H-dependent cellular oxidoreductase enzymes to an insoluble dark-blue colored formazan that can be measured spectrophotometrically. Formazan production indicates the number of viable cells; therefore, an increase or decrease in cellular viability results in a change in the amount of formazan formed, which indicates the degree of cellular cytotoxicity (CC50) caused by the plant extract. MTT (3-(4,5-dimethylthiazol-2-yl)-2,5-diphenyl tetrazolium bromide) was dissolved in PBS to obtain a final concentration of 5 mg/ml and filtered to sterilize and remove insoluble residue. The assay was carried out in 96-well, flat-bottomed microtiter plates. To each well, 200 μl of MT-4 cells (1 × 10^5 cells) in growth media was added. The plates were preincubated for 24 h at 37 °C to allow stabilization. Then, 50 μL of the test compounds (at a concentration of 4 mg/ml) were added to the first column of the well. With a multichannel pipette, 50 μL was transferred (in triplicate) from the wells labeled 1 to wells labeled 2, and such transfers were continued (serial dilution), moving from left to right, changing tips prior to mixing contents of the next column of wells. Finally, 50 μL was discarded from the wells in column 12. […] Each dilution was tested in triplicates. The negative control (NC) wells contained 50 μl of MT-4 cells in 0.5% DMSO [52]. […] A 96-well microtiter plate containing the test compounds and positive and negative controls was incubated at 37 °C in a humidified atmosphere of 5% CO2 for 5 days. After incubation, 20 μl of MTT reagent (5 mg/ml MTT in phosphate-buffered saline) was added to each test well and control well. The plate was further incubated at 37 °C in a CO2 incubator for 4 hours. After 4 hours of incubation, 100 μl of DMSO was added to dissolve the dark-blue formazan crystals from surviving cells. After the formazan crystals were dissolved completely, the resulting optical density (OD) readings were measured relative to the controls on an ELISA plate reader at 570 nm with a reference wavelength of 620 nm. For each extract and pure compound tested, 3 triplicate determinations were performed. […] The concentration that determined cell viability above 80% (CC20) was chosen as the maximum non-toxic concentration (MNTC).

in vitro = conditions: human, MT-4 cells
Procedure: as §1

[1] = molecular target: HIV-1 RT-associated RNase H function; parameters: method as in ref 62 (Esposito et al); conditions: ref 62 (Esposito et al); cited from earlier work
HIV = system: HIV; parameters: method as in ref 61 (Chaniad et al); conditions: ref 61 (Chaniad et al); read-out: IC50 against HIV; cited from earlier work
[2] = HIV-1IIIB-infected MT-4 cells, 5 days, MTT, mean ± S.E.M (n = 3)
[3] = Human immunodeficiency virus 1, MT4, 120 h, read-out: IC50 (50% antiviral effect concentration), HIV-1IIIB-infected MT-4 cells, 5 days, MTT, mean ± S.E.M (n = 3)
[4] = Human immunodeficiency virus 1, MT4, 120 h, HIV-1IIIB-infected MT-4 cells, 5 days, MTT, mean ± S.E.M (n = 3)
[5] = CC50 (50% cytotoxic concentration), 5 days, MTT, mean ± S.E.M (n = 3)
[6] = Human immunodeficiency virus 1, MT4, 120 h, read-out: IC50 (50% antiviral effect concentration)

| SMILES | EmaxAV (maximum antiviral effect %, inhibition of virus-induced CPE) (HIV-1IIIB virus; [2]) | IC50 (HIV-1IIIB virus; [3]) | SI (selective index) (HIV-1IIIB virus) | MNTC (maximum nontoxic concentration) (MT-4 cells) | CC50 (50% cytotoxic concentration) (MT-4 cells) | EmaxC (maximum cytotoxic effect %) (MT-4 cells) | Emax (HIV-1IIIB virus; [4]) | CC50 at 5 days (in vitro; [5]) | IC50, HIV-1 RT-associated RNase H function [1] | IC50 (HIV-1IIIB virus; [6]) | CC50 at 5 days (in vitro) | IC50 (HIV-1IIIB virus; Human immunodeficiency virus 1, MT4, as stated in abstract/conclusions, read-out: anti-HIV-1 inhibition IC50) | IC50 (HIV-1IIIB virus; Human immunodeficiency virus 1, MT4, read-out: anti-HIV-1 inhibition IC50) | IC50 (HIV-1IIIB virus; Human immunodeficiency virus 1, MT4, as stated in abstract, read-out: anti-HIV-1 inhibition IC50) | IC50 (HIV) | Emax (HIV-1IIIB virus; Human immunodeficiency virus 1, MT4, 120 h) |
| --- | --- | --- | --- | --- | --- | --- | --- | --- | --- | --- | --- | --- | --- | --- | --- | --- |
| Cc1ccnc2c1NC(=O)c1cccnc1N2C1CC1 [NVP, Nevirapine, reference compound] | 72.53 ± 0.47% | 0.24 ± 0.09 µg/mL | 3.5 | 0.57 ± 0.0 µg/mL | 0.82 ± 0.0 µg/mL (≈ 3.08 µM) | 39.13 ± 0.65% | – | – | – | – | – | – | – | – | – | – |
| C=C(C)[C@@H]1CC[C@]2(C)CC[C@]3(C)[C@H](CC[C@@H]4[C@@]5(C)CC[C@H](O)C(C)(C)[C@@H]5CC[C@]43C)[C@@H]12 [Compound 5, lupeol] | – | 0.047 ± 0.02 µg/mL | 3048.2 | 75.75 ± 0.74 µg/mL | – | 70.28 ± 0.75% | 77.01 ± 0.38% | 141.8 ± 0.7 µg/mL (≈ 332 µM) | 11600 nM | – | – | – | – | – | – | – |
| C[C@H](Cn1cnc2c(N)ncnc21)OCP(=O)(O)O [TDF, Tenofovir, reference compound] | 80.55 ± 0.46% | – | – | 4.92 ± 0.71 µg/mL | 6.73 ± 0.24 µg/mL (≈ 23.4 µM) | 13.17 ± 0.43% | – | – | – | 0.04 ± 0.01 µg/mL | – | – | – | – | – | – |
| Cc1cn([C@H]2C[C@H](N=[N+]=[N-])[C@@H](CO)O2)c(=O)[nH]c1=O [AZT, Zidovudine, reference compound] | 83.5 ± 0.57% | – | – | – | – | – | – | – | – | – | – | – | – | – | – | – |
| COc1ccccc1COC(=O)c1ccccc1 [Compound 1, 2-methoxy benzyl benzoate] | – | 0.25 ± 0.02 µg/mL | 0.0073 | – | – | 39.1 ± 2.22% | 53.2 ± 3.35% | – | – | – | 0.001 µg/mL (≈ 0.00413 µM) | – | – | – | – | – |
| C=C(C)[C@@H]1CC[C@]2(C)CC[C@]3(C)[C@H](CC[C@@H]4[C@@]5(C)CCC(=O)C(C)(C)[C@@H]5CC[C@]43C)[C@@H]12 [Compound 2, lupenone] | – | 0.002 ± 0.001 µg/mL | 14,084.0 | 14.17 ± 0.94 µg/mL | 28.83 ± 0.54 µg/mL (≈ 67.9 µM) | 38.53 ± 0.69% | 64.74 ± 0.52% | 32.5 ± 0.7 µg/mL (≈ 76.4 µM) | – | – | – | 4.7 nM | – | – | – | – |
| C=C(C)[C@@H]1CC[C@]2(CO)CC[C@]3(C)[C@H](CC[C@@H]4[C@@]5(C)CC[C@H](O)C(C)(C)[C@@H]5CC[C@]43C)[C@@H]12 [Compound 4, betulin] | – | 0.002 ± 0.04 µg/mL | 15,551.2 | 16.54 ± 0.35 µg/mL | – | 55.13 ± 0.15% | 76% | 31.7 ± 0.55 µg/mL (≈ 71.7 µM) | – | – | – | – | 4.5 nM | 4.5 µg/mL | 17700 ± 600 nM | – |
| Nc1nc(NC2CC2)c2ncn([C@H]3C=C[C@@H](CO)C3)c2n1 [ABC, Abacavir, reference compound] | 58.67 ± 0.43% | 0.05 ± 0.031 µg/mL | 5.0 | 0.18 ± 0.03 µg/mL | 0.26 ± 0.00 µg/mL (≈ 0.908 µM) | 17.83 ± 0.57% | – | – | – | – | – | – | – | – | – | – |
| CC[C@H](/C=C/[C@@H](C)[C@H]1CC[C@H]2[C@@H]3CC=C4C[C@@H](O)CC[C@]4(C)[C@H]3CC[C@]12C)C(C)C [Compound 7, stigmasterol] | – | – | 86.5 | 4.70 ± 3.43 µg/mL | – | 43.71 ± 2.02% | – | 12.4 ± 10.9 µg/mL (≈ 30 µM) | – | 0.14 ± 0.04 µg/mL | – | – | – | – | – | 76.8 ± 23.2% |

From PMC9202147, “In vitro anti-HIV and cytotoxic effects of pure compounds isolated from Croton macrostachyus Hochst. Ex Delile” (BMC Complementary Medicine and Therapies, 2022)
